Source: the supplement of paper PMC13380429

How the values were obtained:
[1] = test system: A549-ACE2 infected with SARS-CoV-2; test: cell count relative to DMSO; higher = less toxic; conditions: 24 h
Caco-2 [2] = test: cell viability relative to DMSO; higher = less toxic; conditions: 72 h
Calu-3 [3] = test: as above; conditions: 72 h
HepG2 [4] = test: as above; conditions: 72 h
U2OS [5] = test: as above; conditions: 72 h
Vero E6 [6] = test: as above; conditions: 72 h
[7] = test system: A549-ACE2 infected with SARS-CoV-2; test: SARS-CoV-2 infection rate relative to DMSO; higher = more infection; conditions: 24 h
A549-ACE2 [8] = test: drug-induced phospholipidosis relative to tamoxifen; higher = more phospholipidosis
[9] = test system: A549-ACE2 infected with SARS-CoV-2; test: morphology score (similarity to uninfected cells); higher = more like uninfected cells; conditions: 24 h
Caco-2 [10] = test: relative viability EC50 (midpoint between 100% and the lowest measured viability); higher = less toxic; conditions: 72 h
Calu-3 [11] = test: as above; conditions: 72 h
U2OS [12] = test: as above; conditions: 72 h
Vero E6 [13] = test: as above; conditions: 72 h
Caco-2 [14] = test: drug sensitivity score (DSS) for viability; higher = more toxic; extreme values may be limits of the assay; conditions: 72 h
Calu-3 [15] = test: as above; conditions: 72 h
HepG2 [16] = test: as above; conditions: 72 h
U2OS [17] = test: as above; conditions: 72 h
Vero E6 [18] = test: as above; conditions: 72 h
HepG2 [19] = test: relative viability EC50 (midpoint between 100% and the lowest measured viability); higher = less toxic; conditions: 72 h
A549-ACE2 [20] = test: phospholipidosis EC50; higher = less potent phospholipidosis inducer; conditions: 24 h

COc1cc2c(NC3CCN(C4CCCCC4)CC3)nc(N3CCCN(C(C)C)CC3)nc2cc1OCCCN1CCCCC1 [UNC0646]
Conditions	SARS-CoV-2 infection rate, [7] [%]	cell count, [1] [%]	cell viability, Caco-2 [2] [%]	cell viability, Calu-3 [3] [%]	cell viability, HepG2 [4] [%]	cell viability, U2OS [5] [%]	cell viability, Vero E6 [6] [%]	morphology score, [9]
1 nM	–	–	96	96.5	88.2	103	92.2	–
10 nM	–	–	97.6	92.3	96.7	102	97.6	–
100 nM	–	–	100	93.6	90.9	107	94.3	–
0.3 µM	92	106	–	–	–	–	–	0.28
1000 nM	–	–	97.6	90.4	102	97	92	–
3 µM	68	110	–	–	–	–	–	0.67
10 µM	26	112	–	–	–	–	–	0.92
10000 nM	–	–	93.9	83.9	65.3	94.7	100	–
30 µM	47	25	–	–	–	–	–	-0.11

drug-induced phospholipidosis [%], A549-ACE2 [8]
Conditions	0.3 µM	0.833333 µM	3.33333 µM	6.66667 µM	10 µM	30 µM
24 h	-0.25	5.64	3.14	8.62	22	44.4
48 h	1.05	5.57	5.07	9.69	24.5	45.2
72 h	0.206	4.62	7.33	11.5	28	–

Conditions	drug sensitivity score	relative viability EC50 [µM]
Caco-2 [10]	–	> 10
Caco-2 [14]	0	–
Calu-3 [11]	–	> 10
Calu-3 [15]	0.6	–
HepG2 [16]	1.5	–
U2OS [12]	–	> 10
U2OS [17]	0	–
Vero E6 [13]	–	> 10
Vero E6 [18]	0	–

Cc1[nH]c2ccccc2c1CCNC(=O)c1cccs1 [CK-636]
Conditions	SARS-CoV-2 infection rate, [7] [%]	cell count, [1] [%]	cell viability, Caco-2 [2] [%]	cell viability, Calu-3 [3] [%]	cell viability, HepG2 [4] [%]	cell viability, U2OS [5] [%]	cell viability, Vero E6 [6] [%]	morphology score, [9]
1 nM	–	–	98.9	100	99.8	94	104	–
10 nM	–	–	99.8	90.9	104	101	100	–
100 nM	–	–	91.4	91.8	102	94.9	103	–
0.3 µM	101	98	–	–	–	–	–	-0.06
1000 nM	–	–	99.6	99.7	99.8	100	97	–
3 µM	103	99	–	–	–	–	–	-0.01
10 µM	100	101	–	–	–	–	–	0.14
10000 nM	–	–	84.1	93.2	104	93.2	99.3	–
30 µM	100	97	–	–	–	–	–	0.06

drug-induced phospholipidosis [%], A549-ACE2 [8]
Conditions	0.3 µM	0.833333 µM	3.33333 µM	6.66667 µM	10 µM	30 µM
24 h	6.27	1.27	2.41	2.27	5.29	11.7
48 h	3.87	-1.04	2.68	4.83	2.67	12.2
72 h	1.44	-4.13	1.2	4.21	4.6	12.1

Conditions	drug sensitivity score	relative viability EC50
Caco-2 [10]	–	> 10 µM
Caco-2 [14]	0.3	–
Calu-3 [11]	–	> 10 µM
Calu-3 [15]	0	–
HepG2 [16]	0	–
HepG2 [19]	–	> 10000 nM
U2OS [12]	–	> 10 µM
U2OS [17]	0	–
Vero E6 [13]	–	> 10 µM
Vero E6 [18]	0	–

CN(NC(=O)CC(=O)NN(C)C(=S)c1ccccc1)C(=S)c1ccccc1 [elesclomol]
Conditions	SARS-CoV-2 infection rate, [7] [%]	cell count, [1] [%]	cell viability, Caco-2 [2] [%]	cell viability, Calu-3 [3] [%]	cell viability, HepG2 [4] [%]	cell viability, U2OS [5] [%]	cell viability, Vero E6 [6] [%]	morphology score, [9]
1 nM	–	–	93.9	107	93.4	89.6	91.5	–
10 nM	–	–	74.4	83.6	99.4	89.5	96.7	–
100 nM	–	–	7	68.7	69.2	56.9	69.1	–
0.3 µM	93	93	–	–	–	–	–	0.17
1000 nM	–	–	9.7	29.6	66.7	7.8	41.7	–
3 µM	68	104	–	–	–	–	–	0.63
10 µM	99	107	–	–	–	–	–	0.52
10000 nM	–	–	4.1	99.4	82.1	90.6	86	–
30 µM	86	100	–	–	–	–	–	0.39

A549-ACE2 [8]
Conditions	drug-induced phospholipidosis [%]
0.3 µM, 24 h	12.3
0.833333 µM, 24 h	9.68
3.33333 µM, 24 h	7.09
6.66667 µM, 24 h	7.28
10 µM, 24 h	9.51
30 µM, 24 h	2.54
30 µM, 48 h	6.18
30 µM, 72 h	10

Conditions	drug sensitivity score	relative viability EC50 [µM]
Caco-2 [10]	–	0.0174
Caco-2 [14]	32.2	–
Calu-3 [11]	–	> 10
Calu-3 [15]	0	–
HepG2 [16]	9.7	–
U2OS [12]	–	0.1
U2OS [17]	21.4	–
Vero E6 [13]	–	0.637
Vero E6 [18]	8.7	–

CCOC(=O)c1c(C)[nH]c2ccc3c(c12)CN1CCc2cc(OC)ccc2C1O3 (stereo not given)
Conditions	SARS-CoV-2 infection rate, [7] [%]	cell count, [1] [%]	cell viability, Caco-2 [2] [%]	cell viability, Calu-3 [3] [%]	cell viability, HepG2 [4] [%]	cell viability, U2OS [5] [%]	cell viability, Vero E6 [6] [%]	morphology score, [9]
1 nM	–	–	103	102	93.2	97.3	102	–
10 nM	–	–	98.8	101	92.8	100	104	–
100 nM	–	–	95.8	109	97.2	99.8	92	–
0.3 µM	105	98	–	–	–	–	–	-0.2
1000 nM	–	–	93.1	98.4	78.4	98.3	91.5	–
3 µM	59	112	–	–	–	–	–	0.69
10 µM	25	114	–	–	–	–	–	0.83
10000 nM	–	–	53.6	53.6	29	61	80.1	–
30 µM	26	92	–	–	–	–	–	0.42

Conditions	drug sensitivity score	phospholipidosis EC50 [µM]	relative viability EC50
A549-ACE2 [20]	–	9.3	–
Caco-2 [14]	3.6	–	–
Calu-3 [15]	2.6	–	–
HepG2 [16]	7.1	–	–
HepG2 [19]	–	–	1400 nM
U2OS [17]	2.2	–	–
Vero E6 [13]	–	–	> 10 µM
Vero E6 [18]	1.1	–	–

drug-induced phospholipidosis [%], A549-ACE2 [8]
Conditions	0.3 µM	0.833333 µM	3.33333 µM	6.66667 µM	10 µM	30 µM
24 h	2.45	1.52	13.8	23.7	49.6	77.6
48 h	1.49	1.91	7.41	9.35	10.9	99.9
72 h	3.49	0.0297	4.37	8.63	10.6	83.4
